Results taken from patent US20130337485A1, “ENZYMATIC SYNTHESIS OF ACTIVE PHARMACEUTICAL INGREDIENT AND INTERMEDIATES THEREOF” (LEK PHARMACEUTICALS D.D, priority 2010, published 2013).

What was measured:
[1] = molecular target: T1, E. coli YliI aldose dehydrogenase (Escherichia coli, UniProt P75804); test: Substrate specificity and pH optima of E. coli YliI aldose dehydrogenase (DCPIP method); assay type: biochemical; conditions: 50 mM substrate, 5 μM PQQ, 10 mM MgCl2
T1 construct: made in house; host or cells: E. coli BL21(DE3) carrying pET30/YliI; not purified (resting whole cells or cell free lysate), reconstituted with PQQ and MgCl2
Method: (§1) Final volume of reaction mixture was 200 μL, all components were dissolved in phosphate buffer pH 8.0.
(§2) The catalyst E. coli BL21 pET30/YliI culture obtained either as resting whole cell catalyst (obtained undertaking Procedure 1C) or as lysate (as described in Example 2). The initial pH value of reaction mixture was 8.0. All tested solutions were made in triplicates.
(§3) The second reaction mixture was prepared identically to the above with a sole difference: the pH value of assembled mixture being 6.0 (all compounds of reaction mixture were dissolved in phosphate buffer pH 6.0 and the initial pH value of reaction mixture was thus 6.0). All tested solutions were made in triplicates.
(§4) Experiment was performed as described in Example 11. In the table below are shown activities of “analyzed material” (abs[mAU min^−1 mg^−1])

[2] = molecular target: T2, E. coli YliI aldose dehydrogenase (Escherichia coli, UniProt P75804, A204V); test: as above; assay type: biochemical; conditions: for Activity of E. coli BL21(DE3) pET30/Ylil on substrate, resting whole cell: 50 mM substrate, 5 μM PQQ, 10 mM MgCl2
T2 construct: made in house; host or cells: E. coli BL21(DE3) carrying pET30/YliI; not purified (resting whole cells or cell free lysate), reconstituted with PQQ and MgCl2
Method: as §1, §2, §3, §4

[3] = molecular target: T3, membrane bound glucose dehydrogenase from E. coli, the Gcd (Escherichia coli, UniProt P15877); test: Substrate specificity and pH optima of membrane bound glucose dehydrogenase Gcd (DCPIP method); assay type: biochemical; conditions: for Activity of E. coli BL21(DE3) pET30/Gcd on substrate, lysate / Activity of E. coli BL21(DE3) pET30/Gcd on substrate, resting whole cell: 50 mM substrate, 5 μM PQQ, 10 mM MgCl2
T3 construct: made in house; host or cells: E. coli BL21(DE3) carrying pET30/Gcd; not purified (resting whole cells or lysate), reconstituted with PQQ and MgCl2
T3 sequence (P15877 1-796): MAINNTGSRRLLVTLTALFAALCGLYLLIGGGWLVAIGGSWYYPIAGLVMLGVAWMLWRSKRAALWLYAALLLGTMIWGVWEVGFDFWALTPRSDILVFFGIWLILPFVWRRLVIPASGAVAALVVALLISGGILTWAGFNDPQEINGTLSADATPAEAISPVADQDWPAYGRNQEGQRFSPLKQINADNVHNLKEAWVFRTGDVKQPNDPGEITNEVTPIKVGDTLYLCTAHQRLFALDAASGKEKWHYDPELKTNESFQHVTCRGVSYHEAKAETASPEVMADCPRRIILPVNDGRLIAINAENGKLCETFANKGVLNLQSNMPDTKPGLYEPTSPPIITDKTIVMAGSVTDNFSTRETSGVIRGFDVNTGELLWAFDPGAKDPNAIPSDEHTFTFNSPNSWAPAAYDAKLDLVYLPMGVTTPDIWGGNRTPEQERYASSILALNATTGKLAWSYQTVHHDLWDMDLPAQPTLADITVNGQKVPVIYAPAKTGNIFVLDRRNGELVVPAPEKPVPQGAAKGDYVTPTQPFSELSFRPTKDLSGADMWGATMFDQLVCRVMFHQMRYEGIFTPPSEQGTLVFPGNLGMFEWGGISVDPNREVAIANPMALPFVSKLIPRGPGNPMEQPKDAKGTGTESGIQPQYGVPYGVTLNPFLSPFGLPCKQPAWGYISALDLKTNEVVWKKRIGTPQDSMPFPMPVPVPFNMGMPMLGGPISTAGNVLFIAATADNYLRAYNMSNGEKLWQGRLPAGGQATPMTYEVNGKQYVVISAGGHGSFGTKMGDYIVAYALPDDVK
Method: To investigate substrate specificity and pH optima of said E. coli membrane aldose dehydrogenase the above mentioned experiments were performed on the catalyst E. coli BL21 pET30/Gcd.

[4] = test system: whole cell catalyst E. coli BL21 pET30/Gcd; test: Whole cell catalysis capability in bioreactor using pO2 sensor; assay type: cell-based; conditions: pH 6.2, 37° C., 5 μM PQQ, 10 mM MgCl2
Method: Laboratory bioreactors Infors ISF100 with maximal volume of 2 L were used for determination of whole cell catalysis capability of E. coli aldose dehydrogenases. The reactors were stirred, aerated, temperature and pH controlled as described below. When whole cell catalysts bearing holo aldose dehydrogenases were exposed to various substrates, unusual consumption of O2 appeared.
Experiments were performed using whole cell catalyst E. coli BL21 pET30/Gcd (procedure of preparation in described in Example 1, Procedure 1A and moreover in Example 25).
Whole cell catalysts were dissolved in phosphate buffer (50 mM KH2PO4, 150 mM NaCl, pH 6.2) to concentrations of 5 g/L, 10 g/L and 20 g/L to the final volume ([…] in the bioreactor.
The initial process parameters before substrate was added were as follows: 37° C., air flow rate 1.0 L/min (1.0 VVM), stirrer speed 1000 rpm, pH 6.2 and the dissolved oxygen concentration was kept at ≧80% of saturation. 5 μM PQQ and 10 mM MgCl2 were provided into bioreactor broth. Feeding solution were 12.5% (v/v) ammonium hydroxide solution and the silicone antifoam compound synperonic antifoam (Sigma, A-5551) which were fed continuously.
The system described above is very complex in terms of mathematical description of dissolved oxygen levels over the time. On the one hand these are depending on the kLa (vessel properties, stirring, aeration, medium, temperature etc) and enzymatic kinetics on the aldose dehydrogenase on the other hand. In addition the oxygen probe delay kinetics play an important role. We have therefore found empirically, that oxygen consumption in the phase after the pulse feed of the substrate till the minimum of the dissolved oxygen in this dynamic system is best correlated to quadratic equation. A good indicator of the activity potential of the studied biocatalyst is the slope of this quadratic equation, measured at specific time value (for example t=15 seconds). The slope was calculated from the first derivative of the quadratic equation.

[5] = molecular target: glucose oxidase from A. niger (Aspergillus niger, UniProt P13006); conditions: cited from earlier work
[6] = whole cell catalyst BL21 (DE3) pET30/Gcd 5 g/L
[7] = whole cell catalyst BL21 (DE3) pET30/Gcd 10 g/L
[8] = whole cell catalyst BL21 (DE3) pET30/Gcd 20 g/L

T2 sequence (P75804 21-371 A204V): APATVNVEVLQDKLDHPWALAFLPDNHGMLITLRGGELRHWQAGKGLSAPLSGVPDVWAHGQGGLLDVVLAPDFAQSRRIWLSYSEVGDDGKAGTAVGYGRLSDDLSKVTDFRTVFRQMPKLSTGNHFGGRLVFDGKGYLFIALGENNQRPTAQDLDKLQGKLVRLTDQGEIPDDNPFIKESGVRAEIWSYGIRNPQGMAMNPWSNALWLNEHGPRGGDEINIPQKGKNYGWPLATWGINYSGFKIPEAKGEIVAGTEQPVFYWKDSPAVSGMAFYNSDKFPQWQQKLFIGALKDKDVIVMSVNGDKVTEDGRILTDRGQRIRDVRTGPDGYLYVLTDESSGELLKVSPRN
T1 sequence (P75804 21-371 A204V): as above
Sequence of glucose oxidase from A. niger (P13006 17-605): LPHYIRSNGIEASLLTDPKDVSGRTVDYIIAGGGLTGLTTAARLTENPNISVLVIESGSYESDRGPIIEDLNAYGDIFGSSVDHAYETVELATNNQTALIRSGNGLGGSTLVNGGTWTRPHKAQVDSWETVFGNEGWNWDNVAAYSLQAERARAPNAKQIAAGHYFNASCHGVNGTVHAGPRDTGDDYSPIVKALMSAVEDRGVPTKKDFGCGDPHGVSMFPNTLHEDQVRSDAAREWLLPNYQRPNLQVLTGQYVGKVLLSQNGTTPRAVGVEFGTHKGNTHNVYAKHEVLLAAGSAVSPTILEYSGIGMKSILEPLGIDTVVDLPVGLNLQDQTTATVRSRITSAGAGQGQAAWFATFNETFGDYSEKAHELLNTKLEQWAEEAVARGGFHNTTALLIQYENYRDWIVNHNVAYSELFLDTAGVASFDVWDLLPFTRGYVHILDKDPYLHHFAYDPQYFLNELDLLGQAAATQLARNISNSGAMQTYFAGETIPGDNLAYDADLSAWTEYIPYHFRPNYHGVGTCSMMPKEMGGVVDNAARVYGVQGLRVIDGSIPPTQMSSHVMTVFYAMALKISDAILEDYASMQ

| Structure (SMILES) | Activity of E. coli BL21(DE3) pET30/Ylil on substrate, lysate ([1]; pH 6.0) | Activity of E. coli BL21(DE3) pET30/Ylil on substrate, lysate ([1]; pH 8.0) | Activity of E. coli BL21(DE3) pET30/Ylil on substrate, resting whole cell ([2]; pH 6.0) | Activity of E. coli BL21(DE3) pET30/Ylil on substrate, resting whole cell ([2]; pH 8.0) | Activity of E. coli BL21(DE3) pET30/Gcd on substrate, lysate ([3]; pH 6.0) | Activity of E. coli BL21(DE3) pET30/Gcd on substrate, resting whole cell ([3]; pH 6.0) | Activity of E. coli BL21(DE3) pET30/Gcd on substrate, lysate ([3]; pH 8.0) | Activity of E. coli BL21(DE3) pET30/Gcd on substrate, resting whole cell ([3]; pH 8.0) | Reaction rate of oxidation by glucose oxidase, glucose as reference (100%) [5] | further results |
| --- | --- | --- | --- | --- | --- | --- | --- | --- | --- | --- |
| OCC(O)CO [glycerol] | 70 abs[mAU min^−1 mg^−1] | 235 abs[mAU min^−1 mg^−1] | 85 abs[mAU min^−1 mg^−1] | 247 abs[mAU min^−1 mg^−1] | 202 abs[mAU min^−1 mg^−1] | 215 abs[mAU min^−1 mg^−1] | 100 abs[mAU min^−1 mg^−1] | 102 abs[mAU min^−1 mg^−1] | – | – |
| CC(=O)OC[C@@H]1C[C@@H](O)CC(O)O1 (stereo partly drawn) | 273 abs[mAU min^−1 mg^−1] | 1913 abs[mAU min^−1 mg^−1] | 270 abs[mAU min^−1 mg^−1] | 1897 abs[mAU min^−1 mg^−1] | 2403 abs[mAU min^−1 mg^−1] | 2403 abs[mAU min^−1 mg^−1] | 1013 abs[mAU min^−1 mg^−1] | 1105 abs[mAU min^−1 mg^−1] | – | Substrate concentration above which slight substrate inhibition to the reaction rate was observed ([2]; E. coli BL21 pET30/YliI, pH 8.0): above 40 g/L; DCPIP discoloration rate compared with D-glucose or D-galactose as substrate ([2]; E. coli BL21 pET30/YliI, pH 8.0, 2.5-10 g/L substrate): about two times faster; Substrate concentration above which slight substrate inhibition to the reaction rate was observed ([3]; E. coli BL21 pET30/Gcd, pH 6.0): above 60 g/L; DCPIP discoloration rate compared with D-glucose or D-galactose as substrate ([3]; E. coli BL21 pET30/Gcd, pH 6.0, 2.5-10 g/L substrate): about two times slower; Slope of quadratic equation of oxygen consumption after substrate pulse [4, 6]: 38652; Slope of quadratic equation of oxygen consumption after substrate pulse [4, 7]: 87425; Slope of quadratic equation of oxygen consumption after substrate pulse [4, 8]: 163562 |
| CC(=O)OC[C@@H]1C[C@@H](O)CC(=O)O1 | – | – | – | – | – | – | – | – | – | Added product concentration above which slight reduction in reaction rates was observed ([2]; E. coli BL21 pET30/YliI, pH 8.0, in addition of 10 g/L substrate): more than 35 g/L; Added product concentration above which slight reduction in reaction rates was observed ([3]; E. coli BL21 pET30/Gcd, pH 6.0, in addition of 10 g/L substrate): more than 55 g/L |
| C[C@@H](O)[C@@H](O)[C@H](O)[C@@H](O)C=O [6-deoxy-D-glucose] | – | – | – | – | – | – | – | – | 10% | – |
| O=CC[C@@H](O)[C@H](O)[C@H](O)CO [2-deoxy-D-glucose] | – | – | – | – | – | – | – | – | 20-30% | – |
| O=C[C@H](O)[C@@H](O)[C@H](O)[C@H](O)CO [D-glucose] | 210 abs[mAU min^−1 mg^−1] | 321 abs[mAU min^−1 mg^−1] | 350 abs[mAU min^−1 mg^−1] | 356 abs[mAU min^−1 mg^−1] | 2830 abs[mAU min^−1 mg^−1] | 2840 abs[mAU min^−1 mg^−1] | 1305 abs[mAU min^−1 mg^−1] | 1260 abs[mAU min^−1 mg^−1] | – | Slope of quadratic equation of oxygen consumption after substrate pulse [4, 6]: 45813; Slope of quadratic equation of oxygen consumption after substrate pulse [4, 7]: 114771; Slope of quadratic equation of oxygen consumption after substrate pulse [4, 8]: 230631 |
| CO[C@@H]([C@H](O)[C@@H](O)C=O)[C@H](O)CO [4-O-methyl-D-glucose] | – | – | – | – | – | – | – | – | 15% | – |
